Test results: patent US9737487B2, “Cyclodextrin compositions encapsulating a selective ATP inhibitor and uses thereof” (The Johns Hopkins University, priority 2014, dated 2017)
Structures can show the parent of a compound that is named as a salt.

What was measured:
[1] = system: orthotopic MiaPaCa-2 tumors; assay: Orthotopic lucMiaPaCa-2 xenograft, systemic treatment with BLI follow-up, survival and necropsy (Example 6); format: in vivo, mice
Protocol: Male athymic nude mice (body weight, 20-25 g; 4 weeks old; Crl:NU (NCr)-Fox1^nu; Charles River Laboratory, Germantown, Md., USA) were used in accordance with institutional guidelines under approved Animal Care and Use Committee protocols. Mice were maintained in laminar flow rooms at constant temperature and humidity with food and water given ad libitum. Orthotopic xenograft tumors were generated by implantation of 1.5×10^6 lucMiaPaCa-2, suspended in 50 μl PBS, into the tail of the pancreas in anesthetized mice. To accomplish this, mice were placed into a clean anesthesia induction chamber (oxygen flow rate, 1 liter/minute; isoflurane concentration of 3-4%). Upon loss of the righting reflex, animals were placed on the surgical procedure surface, where a nose cone was used to maintain anesthesia (oxygen flow, 0.8 liters/minute; Isoflurane concentration, 1.5-2%). A small, left abdominal flank incision was made, and the pancreas was exteriorized to inject the cell solution using a 30 G Hamilton syringe. A successful subcapsular intrapancreatic injection was identified by the appearance of a fluid bleb without intraperitoneal leakage. The abdominal cavity was closed with a double-layer of non-absorbable suture material (Kim et al. (2009) Nat. Protocol. 4:1670-1680).
Tumor viability was confirmed via in vivo bioluminescence imaging (BLI) on day 7 after the surgical implantation. Anesthetized tumor-bearing mice were injected intraperitoneally with D-luciferin 150 mg/kg and optically imaged 5 minutes later using the IVIS 200 system (Xenogen). The pseudocolor image representing the spatial distribution of photons was overlaid on a previously acquired grayscale photographic image. A region of interest (ROI) was created to include the optical tumor image. Signal intensity was quantified within the ROI in photons/second/squared centimeter/steradian (p/s/cm2/Sr) after a 10-second exposure using Living Image software (Xenogen). Additionally, orthotopic growth of the tumors was confirmed prior to treatment using small-animal ultrasound imaging (USI). In brief, anesthetized mice were subjected to examination using the VEVO2100 (Visual Sonics Inc., Toronto, Canada, kindly provided by Dr. Harry C. Dietz) by applying a MS-550D MicroScan transducer probe with 40 MHz (broadband with 22-55 MHz). Tumor localization was confirmed using the cranial tip of the left kidney and the caudal tip of the spleen as anatomic landmarks (Ota et al. (2013) Target. Oncol. 8:145-151; Tuli et al. (2012) Translat. Oncol. 5:77-84). […]

Suit-2 cells [2] = assay: Monolayer cell culture viability assay (CellTiter-Glo), Suit-2; format: cell-based; conditions: Homo sapiens, normoxic, 72 hrs. exposure, barely achieved
Protocol: (§1) Two human pancreatic adenocarcinoma cell lines, lucMiaPaCa-2 (stably transfected with the luciferase-aminoglycoside phosphotransferase fusion gene, kindly provided by Dr. Phuoc T. Tran) and Suit-2 (kindly provided by Dr. Shinichi Ota, Japan) were cultured in RPMI or MEM media, respectively, both supplemented with 10% FBS and 1% Penicillin-Streptomycin. The effects of different drugs on cell viability were determined by quantifying intracellular adenosine triphosphate (ATP) levels using a luminescence-based kit (CellTiter-Glo, Promega) and a multilable 96-well plate (Costar). The accuracy and reproducibility of viability measurements using this luminiscence-based kit in lucMiaPaCa-2 cells was confirmed using the Dual-Reporter assay kit (Promega). In brief, 5×10^3 cells were seeded in triplicate and incubated for 72 hrs. under normoxic or hypoxic (1% O2-level, balanced with CO2 and nitrogen within a controlled atmosphere chamber) conditions. Indicated amounts of free 3-BrPA, 1:1-β-CD-3-BrPA or β-CD as a control were dissolved in PBS and added to the medium for 24 hrs. of treatment. For the experiments with gemcitabine, cells were incubated for 24 hrs. prior to a 72 hrs. exposure to the drug. Cell viability was determined following the manufacturer's protocol.

lucMiaPaCa-2 cells = assay: Monolayer cell culture viability assay (CellTiter-Glo), normoxic or hypoxic, lucMiaPaCa-2; format: cell-based; conditions: Homo sapiens; normoxic, 72 hrs. exposure; barely achieved
Protocol: as §1

[3] = system: matrix-metalloproteinase 9 (MMP-9); assay: MMP-9 secretion by gelatin zymography and immunoblotting, MiaPaCa-2; format: cell-based, human; conditions: 24 hrs., dose that did not induce apoptosis or reduce cell viability
Protocol: (§2) Zymography assays were performed to determine the activity of secreted MMP-9. Accordingly, 4×10^6 Suit-2 cells and 2.5×10^6 lucMiaPaCa-2 cells were seeded in 75 cm^2-flasks and incubated overnight at 37° C. under normoxic conditions. The following day, fresh FBS-free medium containing different concentrations of 3-BrPA was added and cells were incubated for an additional 24 hrs. Subsequently, supernatants were collected, filtered, and the final protein concentrations were determined using the 2D Quant Kit (GE Healthcare). After adjustment for concentration, each sample was loaded onto two 10% gelatin zymography gels (Novex, Invitrogen). Following electrophoresis, proteins in one of the two gels were renaturated and enzymatic digestion was allowed overnight at 37° C. in a developing buffer. The gel was stained with 4 parts 0.1% Coomassie Brilliant Blue in 1 part 100% methanol for 24 hrs. and washed with distilled (DI) water until digested areas were detectable as white bands. Western Blot analysis was performed using the duplicate gel. Proteins were blotted onto a PVDF-Membrane and blocked using 5% skimmed milk in 1×TBS and 0.1% Tween in DI (TBST). […] The HRP provided an […] signal (ECL Kit, GE Healthcare), which was analyzed with ImageJ 1.46r software (Wayne Rasband, National Institute of Health) and used to quantify signal intensity by comparing line integrals.

[4] = Comparative dose escalation studies in non-tumor-bearing animals; format: in vivo, mice; conditions: after a single injection
Protocol: The anti-cancer efficacy of systemically delivered β-CD-3-BrPA was tested using a xenograft model of human pancreatic cancer in athymic nude mice. Prior to choosing the therapeutic dose for more detailed studies, comparative dose escalation studies in non-tumor-bearing animals were performed for both β-CD-3-BrPA and free 3-BrPA. […] animals with orthotopically-implanted and BLI- and USI-confirmed MiaPaCa-2 tumors were then randomized to receive intraperitoneal (i.p.) injections of β-CD-3-BrPA (N=21), gemcitabine (N=7), or β-CD (N=7). An additional group of animals with orthotopic implants (N=7) was treated with free 3-BrPA. […] At the end of the experiment (Day 28), only 2/7 animals (28%) treated with the free drug were still alive (FIG. 12, Panel C). […] After four weeks of treatment, a comparison of BLI signal intensity between the groups was performed. […] After achieving this endpoint, animals were sacrificed and tumors were harvested for further analysis. All animals were subjected to necropsies and organs (brain, heart, lungs, bowel, liver, and kidneys) were harvested for the analysis of potential tissue damage.

[5] = in vivo, after systemic administration; cited from earlier work
[6] = system: matrix-metalloproteinase 9 (MMP-9); assay: MMP-9 secretion by gelatin zymography and immunoblotting, Suit-2; format: cell-based, human; conditions: 24 hrs., dose that did not induce apoptosis or reduce cell viability
Protocol: as §2

MiaPaCa-2 cells = assay: Matrigel invasion assay, MiaPaCa-2; format: cell-based, human; conditions: sub-lethal concentrations, 48 hrs.
Protocol: (§3) The ability of 3-BrPA to inhibit tumor invasion was studied using a matrigel invasion assay, as well as gelatin zymography (Hu and Beeton (2010) J. Visual. Exp. 45:2445; Scott et al. (2011) J. Visual. Exp. 58:e3525). For the matrigel invasion assays, a coating buffer containing 0.01 M Tris and 0.7% sodium chloride was prepared and used to dilute the matrigel basement membrane (BD Biosciences, #356234) to 300 ug/ml. Subsequently, Boyden chambers (Transwell, Corning; 6.5 mm-diameter, 8 um pore size) were coated with 100 μl matrigel solution and stored at 37° C. for 2 hrs. to allow for gelatination. Approximately 7.5×10^4 cells were resuspended in 500 μl FBS-free medium and plated into the upper chamber of the insert, which was then placed into a 24-well plate containing […] FBS-containing medium. After overnight incubation at 37° C., various amounts of 3-BrPA dissolved in PBS were added to the upper chamber. Fourty-eight hours later, non-invasive cells were removed from the matrigel with a cotton swab. Invaded cells adherent to the bottom side of the permeable insert were fixed and stained with the Diff Quik Stain Kit (Polysciences Inc.). […] Invasion of cells was quantified by measuring the area of stained cells after treatment compared to untreated samples at 10× magnification.

[7] = system: subcutaneous pancreatic cancer xenografts; conditions: 5 mg/kg, twice per week, systemic; cited from earlier work
Suit-2 cells [8] = assay: Matrigel invasion assay, Suit-2; format: cell-based, human; conditions: sub-lethal concentrations, 72 hrs.
Protocol: as §3

SMILES | BLI signal increase as compared to baseline ([1]; after four weeks of treatment) | IC50 (Suit-2 cells [2]) | IC50 (lucMiaPaCa-2 cells) | concentration at which marked reduction in the secretion of MMP-9 begins [3] | median lethal dose (LD50) [4] | time of inactivation through interaction with serum proteins (as early as) [5] | concentration at which marked reduction in the secretion of MMP-9 begins [6] | drug concentration showing a reduction in invasion (as low as) (MiaPaCa-2 cells) | efficacy of 3-BrPA alone [7] | animals died before the acquisition of the first follow-up BLI ([1]; daily i.p. 5 mg/kg in 500 μl saline) | loss of animals at the end of the experiment (treatment-related toxicity, Kaplan-Meier) ([1]; daily i.p. 5 mg/kg, 28 days) | animals still alive at the end of the experiment ([1]; daily i.p. 5 mg/kg, Day 28) | drug concentration showing a reduction in invasion (as low as) (Suit-2 cells [8])
Nc1ccn([C@@H]2O[C@H](CO)[C@@H](O)C2(F)F)c(=O)n1 [gemcitabine, gemcitabine hydrochloride salt] | 60 fold | 100 nM | 100 nM | – | – | – | – | – | – | – | – | – | –
O=C(O)C(=O)CBr [3-BrPA, 3-bromopyruvate] | – | – | – | 6.25 µM | 10 mg/kg | 2 to 3 min | 6.25 µM | 12.5 µM | did not report any significant efficacy | 3/7 | 5/7 | 2/7 | 12.5 µM
